Experimental data: patent US20060293307A1, “Oxazolidinone derivatives as antimicrobials” (priority 2002, published 2006)
In brackets after ≈: the same amount, converted by molar mass. Where two headings read alike, the source gives them in different places.

Tests used:
E. faecalis 5B (VRE) = assay: MIC, agar incorporation method; assay type: cell-based
H. influenzae 35056 = assay: MIC against Haemophilus strains; assay type: cell-based
H. influenzae βIac = assay: MIC against Haemophilus strains; assay type: cell-based
H. influenzae 474 = assay: MIC against Haemophilus strains; assay type: cell-based
H. influenzae 1745 = assay: MIC against Haemophilus strains; assay type: cell-based
M. tuberculosis V-3093 = assay: MIC against M. tuberculosis strains, agar dilution; assay type: cell-based, Mycobacterium tuberculosis; conditions: Mycobacterium tuberculosis, V3093, S. No. 14 Mt-, Middle Brook 7H10 + OADC, 37° C., 14-21 days, read-out: MIC
M. tuberculosis SGPGI = assay: MIC against M. tuberculosis strains, agar dilution; assay type: cell-based, Mycobacterium tuberculosis; conditions: S. No. 07 Mt-, Middle Brook 7H10 + OADC, 37° C., 14-21 days
M. tuberculosis 35801 = assay: MIC against M. tuberculosis strains, agar dilution; assay type: cell-based, Mycobacterium tuberculosis; conditions: S. No. 02 Mt-, Middle Brook 7H10 + OADC, 37° C., 14-21 days
M. tuberculosis 50 = assay: MIC against M. tuberculosis strains, agar dilution; assay type: cell-based, Mycobacterium tuberculosis; conditions: S. No. 12 Mt-, Middle Brook 7H10 + OADC, 37° C., 14-21 days
M. tuberculosis H37Rv = assay: MIC against M. tuberculosis strains, agar dilution; assay type: cell-based, Mycobacterium tuberculosis; conditions: S. No. 04 Mt-, Middle Brook 7H10 + OADC, 37° C., 14-21 days
M. avium ATCC 49601 = assay: MIC against MAC strains, agar dilution; assay type: cell-based, Mycobacterium avium; conditions: S. No. 01 Ma-1, M. avium ATCC 49601, Middle Brook 7H10 + OADC, 37° C., 14-21 days
M. tuberculosis M-149 = assay: MIC against M. tuberculosis strains, agar dilution; assay type: cell-based, Mycobacterium tuberculosis; conditions: Middle Brook 7H10 + OADC, 37° C., 14-21 days
M. avium AIIMS = assay: MIC against MAC strains, agar dilution; assay type: cell-based, Mycobacterium avium; conditions: S. No. 04 Ma-4, M. avium AIIMS; Middle Brook 7H10 + OADC, 37° C., 14-21 days
[1] = tested on: M. avium intracellulare 540/96; assay: MIC against MAC strains, agar dilution; assay type: cell-based; conditions: S. No. 12 Mai-4, M. avium intracellulare 540/96; Middle Brook 7H10 + OADC, 37° C., 14-21 days
[2] = tested on: M. intracellulare ATCC 35761; assay: MIC against MAC strains, agar dilution; assay type: cell-based; conditions: S. No. 07 Mi-2, M. intracellulare ATCC 35761; Middle Brook 7H10 + OADC, 37° C., 14-21 days
M avium ATCC 25291 = assay: MIC against MAC strains, agar dilution; assay type: cell-based, Mycobacterium avium; conditions: S. No. 02 Ma-2, M avium ATCC 25291; Middle Brook 7H10 + OADC, 37° C., 14-21 days
[3] = tested on: M. avium intracellulare 356/97; assay: MIC against MAC strains, agar dilution; assay type: cell-based; conditions: S. No. 10 Mai-1, M. avium intracellulare 356/97; Middle Brook 7H10 + OADC, 37° C., 14-21 days
M. intracellulare B-78/3 = assay: MIC against MAC strains, agar dilution; assay type: cell-based; conditions: S. No. 09 Mi-4, M. intracellulare B-78/3; Middle Brook 7H10 + OADC, 37° C., 14-21 days
M. avium ATCC 1723 = assay: MIC against MAC strains, agar dilution; assay type: cell-based, Mycobacterium avium; conditions: S. No. 03 Ma-3, M. avium ATCC 1723; Middle Brook 7H10 + OADC, 37° C., 14-21 days
[4] = tested on: M. intracellulare ATCC 13950; assay: MIC against MAC strains, agar dilution; assay type: cell-based; conditions: S. No. 06 Mi-1, M. intracellulare ATCC 13950; Middle Brook 7H10 + OADC, 37° C., 14-21 days
[5] = tested on: M. avium intracellulare 19/97; assay: MIC against MAC strains, agar dilution; assay type: cell-based; conditions: S. No. 17 Mai-10, M. avium intracellulare 19/97; Middle Brook 7H10 + OADC, 37° C., 14-21 days
[6] = tested on: M. avium intracellulare 926/98; assay: MIC against MAC strains, agar dilution; assay type: cell-based; conditions: S. No. 14 Mai-6, M. avium intracellulare 926/98; Middle Brook 7H10 + OADC, 37° C., 14-21 days
[7] = tested on: M. avium intracellulare 18/98; assay: MIC against MAC strains, agar dilution; assay type: cell-based; conditions: S. No. 16 Mai-9, M. avium intracellulare 18/98; Middle Brook 7H10 + OADC, 37° C., 14-21 days
[8] = tested on: M. avium intracellulare 559/97; assay: MIC against MAC strains, agar dilution; assay type: cell-based; conditions: S. No. 15 Mai-7, M. avium intracellulare 559/97; Middle Brook 7H10 + OADC, 37° C., 14-21 days
[9] = Haemophilus influenzae, s. No. 1, H. influenzae 35056, read-out: MIC
[10] = Haemophilus influenzae, s. No. 3, H. influenzae βIac, read-out: MIC
[11] = Haemophilus influenzae, s. No. 11, H. influenzae 474, read-out: MIC
[12] = Haemophilus influenzae, s. No. 9, H. influenzae 1745, read-out: MIC
[13] = S. No. 19, E. faecalis 5B (VRE)
[14] = Mycobacterium tuberculosis, read-out: MIC

Compound: CC(=O)NC[C@H]1CN(c2ccc(N3CCN(c4ccc(C=O)s4)CC3)c(F)c2)C(=O)O1 [Compound No. 2, (S)—N-[[3-[3-Fluoro-4-[4-(5-formyl-2-thienyl)-1-piperazinyl]phenyl]-2-oxo-5-oxazolidinyl]methyl]acetamide]
- MIC (E. faecalis 5B (VRE); Enterococcus faecalis, S. No. 19, E. faecalis 5B (VRE), read-out: MIC): 0.5 µg/mL (≈ 1.12 µM)
- MIC (H. influenzae 35056; [9]): 16 µg/mL (≈ 35.8 µM)
- MIC (H. influenzae βIac; [10]): 16 µg/mL (≈ 35.8 µM)
- MIC (H. influenzae 474; [11]): 16 µg/mL (≈ 35.8 µM)
- MIC (H. influenzae 1745; [12]): > 16 µg/mL

Compound: CC(=O)NC[C@H]1CN(c2ccc(N3CCN(c4ccc(C=O)o4)CC3)c(F)c2)C(=O)O1 [Compound No. 3, (S)—N-[[3-[3-Fluoro-4-[4-(5-formyl-2-furyl)-1-piperazinyl]phenyl]-2-oxo-5-oxazolidinyl]methyl]acetamide]
- MIC (H. influenzae 35056; [9]): 4 µg/mL (≈ 9.29 µM)
- MIC (H. influenzae βIac; [10]): 4 µg/mL (≈ 9.29 µM)
- MIC (H. influenzae 474; [11]): 4 µg/mL (≈ 9.29 µM)
- MIC (H. influenzae 1745; [12]): 8 µg/mL (≈ 18.6 µM)

Compound: CC(=O)NC[C@H]1CN(c2ccc(N3CCN(c4cc(C(OC(C)=O)OC(C)=O)sc4[N+](=O)[O-])CC3)c(F)c2)C(=O)O1 [Compound No. 5, (S)—N-[[3-[3-Fluoro-4-[4-{3-thienyl(2-nitro)-5-acetyloxy}methylacetate]-1-piperazinyl]phenyl]-2-oxo-5-oxazolidinyl]acetamide]
- MIC (E. faecalis 5B (VRE); [13]): 1 µg/mL (≈ 1.68 µM)
- MIC (H. influenzae 35056; s. No. 1, H. influenzae 35056): >16 µg/mL
- MIC (H. influenzae βIac; s. No. 3, H. influenzae βIac): >16 µg/mL
- MIC (H. influenzae 474; s. No. 11, H. influenzae 474): >16 µg/mL
- MIC (H. influenzae 1745; s. No. 9, H. influenzae 1745): 16 µg/mL (≈ 27 µM)

Compound: CC(=O)NC[C@H]1CN(c2ccc(N3CCN(c4ccc([N+](=O)[O-])s4)CC3)cc2)C(=O)O1 [Compound No. 6, (S)—N-[[3-[4-[N-1-(5-nitro-2-thienyl)piperazinyl]-phenyl]-2-oxo-5-oxazolidinyl]-methyl]-acetamide]
- MIC (H. influenzae 35056; s. No. 1, H. influenzae 35056): 16 µg/mL (≈ 35.9 µM)
- MIC (H. influenzae βIac; s. No. 3, H. influenzae βIac): 8 µg/mL (≈ 18 µM)
- MIC (H. influenzae 474; s. No. 11, H. influenzae 474): 16 µg/mL (≈ 35.9 µM)
- MIC (H. influenzae 1745; s. No. 9, H. influenzae 1745): 16 µg/mL (≈ 35.9 µM)

Compound: C[C@H](Cl)C(=O)NCC1CN(c2ccc(N3CCN(c4ccc([N+](=O)[O-])s4)CC3)c(F)c2)C(=O)O1 (stereo partly drawn) [Compound No. 7, (S)—N-[[3-[3-Fluoro-4-[N-1-{4-(5-nitro-2-thienyl)piperazinyl}]-phenyl]-2-oxo-5-oxazolidinyl]-methyl]-2-chloro-propionamide]
- MIC (E. faecalis 5B (VRE); [13]): >8 µg/mL
- MIC (H. influenzae 35056; s. No. 1, H. influenzae 35056): >16 µg/mL
- MIC (H. influenzae βIac; s. No. 3, H. influenzae βIac): >16 µg/mL
- MIC (H. influenzae 474; s. No. 11, H. influenzae 474): >16 µg/mL
- MIC (H. influenzae 1745; s. No. 9, H. influenzae 1745): >16 µg/mL

Compound: O=C(NC[C@H]1CN(c2ccc(N3CCN(c4ccc([N+](=O)[O-])s4)CC3)c(F)c2)C(=O)O1)C(F)F [Compound No. 8, (S)—N-[[3-[3-Fluoro-4-[4-(5-nitro-2-thienyl)-1-piperazinyl]phenyl]-2-oxo-5-oxazolidinyl]methyl]difluoroacetamide]
- MIC (E. faecalis 5B (VRE); Enterococcus faecalis, VRE): 2 µg/mL (≈ 4 µM)
- MIC (H. influenzae 35056; Haemophilus influenzae, 35056): > 16 µg/mL
- MIC (H. influenzae βIac; Haemophilus influenzae): > 16 µg/mL
- MIC (H. influenzae 474; Haemophilus influenzae, 474): > 16 µg/mL
- MIC (H. influenzae 1745; Haemophilus influenzae, 1745): 16 µg/mL (≈ 32 µM)

Compound: CC(=O)NC[C@H]1CN(c2ccc(N3CCOCC3)c(F)c2)C(=O)O1 [Linezolid, reference compound]
- MIC (M. tuberculosis V-3093): 1 µg/mL
- MIC (E. faecalis 5B (VRE); Enterococcus faecalis, VRE): 2 µg/mL (≈ 5.93 µM)
- MIC (H. influenzae 35056; [9]): 8 µg/mL (≈ 23.7 µM)
- MIC (M. tuberculosis SGPGI; [14]): > 32 µg/mL
- MIC (M. tuberculosis 35801; [14]): 1 µg/mL
- MIC (H. influenzae βIac; [10]): 8 µg/mL (≈ 23.7 µM)
- MIC (M. tuberculosis 50; [14]): > 32 µg/mL
- MIC (H. influenzae 474; [11]): 16 µg/mL (≈ 47.4 µM)
- MIC (H. influenzae 1745; [12]): 16 µg/mL (≈ 47.4 µM)
- MIC (M. tuberculosis H37Rv; [14]): 1 µg/mL
- MIC (M. avium ATCC 49601; Mycobacterium avium, ATCC49601, read-out: MIC): 0.5 µg/mL
- MIC (M. tuberculosis M-149; Mycobacterium tuberculosis, M149, S. No. 15 Mt-, read-out: MIC): 32 µg/mL

Compound: CO[C@H]1/C=C/O[C@@]2(C)Oc3c(C)c(O)c4c(O)c(c(/C=N/N5CCN(C)CC5)c(O)c4c3C2=O)NC(=O)/C(C)=C\C=C\[C@H](C)[C@H](O)[C@@H](C)[C@@H](O)[C@@H](C)[C@H](OC(C)=O)[C@@H]1C [RIF]
- MIC (M. tuberculosis SGPGI): >32 µg/mL
- MIC (M. tuberculosis 35801): 0.5 µg/mL
- MIC (M. avium AIIMS): 4.0 µg/mL
- MIC [1]: >32 µg/mL
- MIC [2]: 0.25 µg/mL
- MIC (M avium ATCC 25291): >32 µg/mL
- MIC [3]: 0.5 µg/mL
- MIC (M. tuberculosis 50): >32 µg/mL
- MIC (M. intracellulare B-78/3): 0.25 µg/mL
- MIC (M. avium ATCC 1723): 1.0 µg/mL
- MIC [4]: 4.0 µg/mL
- MIC [5]: >32 µg/mL
- MIC (M. tuberculosis H37Rv): 0.25 µg/mL
- MIC [6]: 0.25 µg/mL
- MIC (M. avium ATCC 49601): <0.03 µg/mL
- MIC [7]: >32 µg/mL
- MIC (M. tuberculosis M-149; S. No. 15 Mt-): >32 µg/mL
- MIC [8]: >32 µg/mL

Compound: CN[C@H](CC(C)C)C(=O)N[C@H]1C(=O)N[C@@H](CC(N)=O)C(=O)N[C@H]2C(=O)N[C@H]3C(=O)N[C@H](C(=O)N[C@H](C(=O)O)c4cc(O)cc(O)c4-c4cc3ccc4O)[C@H](O)c3ccc(c(Cl)c3)Oc3cc2cc(c3O[C@@H]2O[C@H](CO)[C@@H](O)[C@H](O)[C@H]2O[C@H]2C[C@](C)(N)[C@H](O)[C@H](C)O2)Oc2ccc(cc2Cl)[C@H]1O [Vancomycin, reference compound]
- MIC (E. faecalis 5B (VRE); Enterococcus faecalis, VRE): > 16 µg/mL

Compound: O=C(NC[C@H]1CN(c2ccc(N3CCN(c4ccc([N+](=O)[O-])s4)CC3)c(F)c2)C(=O)O1)C(Cl)Cl [compound 9, (S)—N-[[3-[-3-Fluoro-4-[N-1-(5-nitro-2-thienyl)-piperazinyl]phenyl] -2-oxo-5-oxazolidinyl]methyl]dichloroacetamide]
- MIC (E. faecalis 5B (VRE); [13]): 0.5 µg/mL (≈ 0.939 µM)
- MIC (H. influenzae 35056; s. No. 1, H. influenzae 35056): >16 µg/mL
- MIC (H. influenzae βIac; s. No. 3, H. influenzae βIac): >16 µg/mL
- MIC (H. influenzae 474; s. No. 11, H. influenzae 474): >16 µg/mL
- MIC (H. influenzae 1745; s. No. 9, H. influenzae 1745): >16 µg/mL

Compound: (S)—N-[[3-[-3-Fluoro-4-[(5-nitro-2-thienyl)-3-methyl-1-piperazinyl]phenyl]-2-oxo-5-oxazolidinyl]methyl]acetamide [Compound No. 10]
- MIC (E. faecalis 5B (VRE); [13]): 1 µg/mL
- MIC (H. influenzae 35056; s. No. 1, H. influenzae 35056): >16 µg/mL
- MIC (H. influenzae βIac; s. No. 3, H. influenzae βIac): >16 µg/mL
- MIC (H. influenzae 474; s. No. 11, H. influenzae 474): >16 µg/mL
- MIC (H. influenzae 1745; s. No. 9, H. influenzae 1745): >16 µg/mL
